Results: the supplement of paper PMC5908809

Experiments:
Assay in all cases: relative IC50 (inflection point of fitted viability curve, relative to fitted max inhibition); higher = less sensitive
Conditions in all cases: 72 h
KAI3 (IL-2 2.5 ng/mL) = tested on: KAI3 (IL-2 2.5 ng/mL)
Procedure: (§1)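 Drug sensitivity and resistance testing: 5 concentrations over a 10,000-fold range, 72 h at 37 °C, viability by CellTiter-Glo normalised to DMSO and benzethonium chloride controls. IC50 is the inflection point of a logistic fit (min fixed at 0, max fitted), so it is relative to the fitted maximal inhibition. Kept only where fitted max inhibition is at least 50%.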

[1] = tested on: normal primary NK cells, pool 3 (3 donors) (IL-2 2.5 ng/mL)
Procedure: as §1

IMC-1 (IL-2 20 ng/mL) = tested on: IMC-1 (IL-2 20 ng/mL)
Procedure: as §1

NKL (IL-2 2.5 ng/mL) = tested on: NKL (IL-2 2.5 ng/mL)
Procedure: as §1

[2] = tested on: normal primary NK cells, pool 2 (3 donors) (IL-2 2.5 ng/mL)
Procedure: as §1

SNK-6 (IL-2 2.5 ng/mL) = tested on: SNK-6 (IL-2 2.5 ng/mL)
Procedure: as §1

KHYG-1 (IL-2 2.5 ng/mL) = tested on: KHYG-1 (IL-2 2.5 ng/mL)
Procedure: as §1

[3] = tested on: normal primary NK cells, pool 1 (3 donors), resting (IL-2 0 ng/mL)
Procedure: as §1

YT (IL-2 2.5 ng/mL) = tested on: YT (IL-2 2.5 ng/mL)
Procedure: as §1

[4] = tested on: normal primary NK cells, pool 1 (3 donors) (IL-2 2.5 ng/mL)
Procedure: as §1

DERL-7 (IL-2 2.5 ng/mL) = tested on: DERL-7 (IL-2 2.5 ng/mL)
Procedure: as §1

NK-92 (IL-2 2.5 ng/mL) = tested on: NK-92 (IL-2 2.5 ng/mL)
Procedure: as §1

NK-YS (IL-2 2.5 ng/mL) = tested on: NK-YS (IL-2 2.5 ng/mL)
Procedure: as §1

SMILES | relative IC50 (KAI3 (IL-2 2.5 ng/mL)) | relative IC50 [1] | relative IC50 (IMC-1 (IL-2 20 ng/mL)) | relative IC50 (NKL (IL-2 2.5 ng/mL)) | relative IC50 [2] | relative IC50 (SNK-6 (IL-2 2.5 ng/mL)) | relative IC50 (KHYG-1 (IL-2 2.5 ng/mL)) | relative IC50 [3] | relative IC50 (YT (IL-2 2.5 ng/mL)) | relative IC50 [4] | relative IC50 (DERL-7 (IL-2 2.5 ng/mL)) | relative IC50 (NK-92 (IL-2 2.5 ng/mL)) | relative IC50 (NK-YS (IL-2 2.5 ng/mL))
CC1(C)CCC(c2ccc(Cl)cc2)=C(CN2CCN(c3ccc(C(=O)NS(=O)(=O)c4ccc(N[C@H](CCN5CCOCC5)CSc5ccccc5)c(S(=O)(=O)C(F)(F)F)c4)cc3)CC2)C1 [Navitoclax] | 3.12 nM | 203 nM | 727 nM | 35.7 nM | 83 nM | 4.44 nM | 67.7 nM | 10.4 nM | 26.7 nM | 85.3 nM | 109 nM | 208 nM | 73.6 nM
NC(=S)N/N=C/c1ncccc1N [Triapine] | 1320 nM | – | 3720 nM | 3560 nM | – | 3550 nM | 642 nM | 1510 nM | 3750 nM | 2490 nM | 3580 nM | 748 nM | 1450 nM
CCCc1cc(C)[nH]c(=O)c1CNC(=O)c1cc(-c2ccnc(N3CCN(C)CC3)c2)cc2c1cnn2C(C)C [GSK343] | 2480 nM | 3690 nM | 3630 nM | 3350 nM | > 10000 nM | 3520 nM | 2880 nM | 2240 nM | 2890 nM | 2470 nM | 2420 nM | 3190 nM | 2780 nM
Cc1c(N)nc([C@H](CC(N)=O)NC[C@H](N)C(N)=O)nc1C(=O)N[C@H](C(=O)N[C@H](C)[C@@H](O)[C@H](C)C(=O)N[C@H](C(=O)NCCc1nc(-c2nc(C(=O)NCCC[S+](C)C)cs2)cs1)[C@@H](C)O)[C@@H](OC1OC(CO)C(O)C(O)C1OC1OC(CO)C(O)C(OC(N)=O)C1O)c1cnc[nH]1 (stereo partly specified) [Bleomycin] | 537 nM | 1150 nM | 1480 nM | 1150 nM | 1510 nM | 41.8 nM | 2270 nM | 3560 nM | 1530 nM | 2140 nM | 1220 nM | 662 nM | 635 nM
CN(N=O)C(=O)N[C@@H](C=O)[C@@H](O)[C@H](O)[C@H](O)CO [Streptozocin] | > 10000 nM | > 10000 nM | – | > 10000 nM | – | – | – | > 10000 nM | – | > 10000 nM | > 10000 nM | > 10000 nM | –
O=C(CCCCCCC(=O)Nc1ccccc1)NO [Vorinostat] | – | 1980 nM | 2290 nM | 384 nM | 1100 nM | 713 nM | 531 nM | 394 nM | 1470 nM | 376 nM | 690 nM | 467 nM | 1170 nM
CC/C(=C(\c1ccccc1)c1ccc(OCCN(C)C)cc1)c1ccccc1 [Tamoxifen] | 2450 nM | – | – | 1430 nM | 2590 nM | 3700 nM | – | 1680 nM | 2700 nM | 2060 nM | 1680 nM | 2940 nM | –
C=CCN(/C=C1/C(=O)O[C@H](COC)[C@@]2(C)C1=C(O)C(=O)C1=C2[C@H](OC(C)=O)C[C@]2(C)C(=O)CC[C@@H]12)CC=C [Sonolisib] | – | – | – | – | – | – | – | 1630 nM | – | 1200 nM | – | – | –
c1ccc(Cn2c(-c3ccc(OC[C@H](C4CCNCC4)n4c(-c5ccccc5)nc5ccccc54)cc3)nc3ccccc32)cc1 [deltarasin] | 1770 nM | 2910 nM | 3560 nM | 2110 nM | 2270 nM | 3290 nM | 2850 nM | 1640 nM | 2630 nM | 2880 nM | 1950 nM | 1830 nM | 2410 nM
Nc1nc(Nc2ccc3c(c2)CC[C@@H](N2CCCC2)CC3)nn1-c1cc2c(nn1)-c1ccccc1CCC2 [BGB324] | 1110 nM | 1620 nM | 3400 nM | 533 nM | 1070 nM | 1290 nM | 836 nM | 437 nM | 2250 nM | 766 nM | 508 nM | 1020 nM | 2020 nM
